Common to all, as to type: biochemical
The subject of one experiment is PKC (mix of isoforms). Put plainly: PKC assay (counter screen). As to conditions: myelin basic protein substrate; read-out: Counter screens IC50 (μM) PKC. The protocol: Final assay concentrations were as follows: 0.25 mM EGTA, 0.4 mM CaCl, 20 mM Tris pH 7.5, 10 mM MgCl, 1 mM 2-mercaptoethanol, 0.32 mg/ml phosphatidylserine, 0.032 mg/ml diacylglycerol, 10 μM ^33P-ATP, 70 μg/ml MBP, 10 ng/ml PKC, 0.1 mg/ml BSA.
Assays are performed using 96 deep well assay plates. In each assay well 10 μl of solvent control or appropriate inhibitor dilution with 5 μl ^33P-ATP (components #5 and #3) were premixed. In a separate tube, a mixture containing equal volumes of components #1, #2, #4, and #6 was prepared. The assay reaction was initiated by adding 35 μl of the components #1, #2, #4, and #6 mixture to wells containing ^33P-ATP and inhibitor. The liquid in the assay wells was thoroughly mixed and the assay reactions incubated for 20 minutes at room temperature. The reactions were stopped by adding 100 mM EDTA (50 μl) and 100 mM sodium pyrophosphate (50 μl) and mixing. Phosphorylated MBP was collected on PVDF membranes in 96 well filter plates and quantitated by scintillation counting.

For a further experiment, the target named is T1, Akt2 (Homo sapiens, UniProt P31751).
T1 construct: a middle T tag was added to the 5′ end of the full length Akt2 using the PCR primer; biotin tag (from pS2neo vector); made in house; host or cells: Drosophila S2 cells
T1 sequence (P31751 whole entry): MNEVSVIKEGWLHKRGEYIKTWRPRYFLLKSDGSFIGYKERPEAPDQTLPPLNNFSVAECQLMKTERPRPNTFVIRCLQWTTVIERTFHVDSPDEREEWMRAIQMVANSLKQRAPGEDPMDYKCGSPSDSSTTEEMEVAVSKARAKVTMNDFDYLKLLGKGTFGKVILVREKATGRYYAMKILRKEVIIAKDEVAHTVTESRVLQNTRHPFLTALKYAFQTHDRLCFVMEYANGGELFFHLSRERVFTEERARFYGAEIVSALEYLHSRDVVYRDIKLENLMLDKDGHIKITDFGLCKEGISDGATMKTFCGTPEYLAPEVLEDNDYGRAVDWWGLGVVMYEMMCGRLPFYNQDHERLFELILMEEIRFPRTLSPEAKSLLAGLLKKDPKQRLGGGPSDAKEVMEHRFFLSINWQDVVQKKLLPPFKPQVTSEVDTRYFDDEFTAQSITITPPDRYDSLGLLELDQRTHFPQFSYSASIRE
Put plainly: Akt kinase assay, phosphorylation of GSK3-derived peptide. An excerpt:
(§1) This procedure describes a kinase assay which measures phosphorylation of a biotinylated GSK3-derived peptide by human recombinant active Akt/PBK isoforms or Akt/PBK mutants. The ^33P-labeled biotinylated product can be captured and detected using Streptavidin coated Flashplates (NEN LifeSciences) or Streptavidin Membrane Filter Plates (Promega). Alternatively, a GSK3-derived peptide with 2 added lysine residues was used as the substrate and subsequently captured using Phosphocellulose Membrane Filter Plates (Polyfiltronics).
(§2) Active human Akt: The following active human Akt isoforms were utilized in the in vitro assays: active human Akt1 (obtained from Upstate Biotechnology, catalog no. 14-276, 15 μg/37 μl (6.76 μM)) or recombinant lipid activated Akt1 (prepared as described in Example 5); Akt2 (prepared as described in Example 5); Akt3 (prepared as described in Example 5); and delta PH-Akt1 (prepared as described in Example 5).
(§3) Akt specific peptide substrate: GSK3α (S21) Peptide #3928, biotin-[…] (SEQ.ID.NO.: 15), FW=1517.8 (obtained from Macromolecular Resources) for Streptavidin Flashplate or Streptavidin Filter Plate detection.
(§4) GSK3α (S21) Peptide #G80613, […] (SEQ.ID.NO.: 14), FW=1547.8 (obtained from Research Genetics) for Phosphocellulose filter plate detection.
(§5) • B. Active Akt (500 nM): Diluent (1× Assay buffer, 10% glycerol, 0.1% β-mercaptoethanol, 1.0 μM microcystin LR and 1.0 mM EDTA) was added to a vial containing 37 μl of active Akt isoform (6.76 μM). Aliquots were flash frozen in liquid N2 and stored at −70° C. • C. […] Procedure for Streptavidin Flash Plate Assay: Step 1: […]
(§6) The plates were covered with sealing tape and counted using the Packard TopCount with the appropriate settings for counting [^33P] in Flashplates. […]
(§7) The bottom of the plate was sealed with white backing tape, 30 μl/well of Microscint 20 (Packard Instruments, catalog no. 6013621) was added. The top of the plate was sealed with clear sealing tape, and the plate then counted using the Packard TopCount with the appropriate settings for [^33P] with liquid scintillant. […]

The next experiment has as its target T2, active human Akt1 (Homo sapiens, UniProt P31749).
T2 construct: purchased Upstate Biotechnology 14-276
The experiment is described as above. The settings on record: GSK3 peptide substrate; read-out: GSK3 Peptide Substrate IC50 (μM) Akt-1.
From the text: as §1, §2, §3, §4, §5, §6, §7

The next experiment deals with T3, Akt3 (Homo sapiens, UniProt Q9Y243).
T3 construct: a middle T tag was added to the 5′ end of the full length Akt3 clone using the PCR primer; biotin tag (from pS2neo vector); made in house; host or cells: Drosophila S2 cells
T3 sequence (Q9Y243 whole entry): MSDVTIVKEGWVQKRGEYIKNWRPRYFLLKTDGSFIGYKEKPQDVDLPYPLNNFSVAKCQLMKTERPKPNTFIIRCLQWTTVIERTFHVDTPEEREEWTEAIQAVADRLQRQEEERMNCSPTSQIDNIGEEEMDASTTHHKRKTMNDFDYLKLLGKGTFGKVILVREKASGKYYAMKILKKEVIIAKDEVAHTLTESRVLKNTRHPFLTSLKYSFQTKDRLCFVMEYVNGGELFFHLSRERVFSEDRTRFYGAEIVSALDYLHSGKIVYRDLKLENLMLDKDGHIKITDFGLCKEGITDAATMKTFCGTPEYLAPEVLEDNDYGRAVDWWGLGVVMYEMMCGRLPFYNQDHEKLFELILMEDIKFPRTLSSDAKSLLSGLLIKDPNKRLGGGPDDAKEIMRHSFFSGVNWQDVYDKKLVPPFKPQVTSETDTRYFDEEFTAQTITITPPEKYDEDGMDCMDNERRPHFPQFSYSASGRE
The experiment is described as above.
From the text: as §1, §2, §3, §4, §5, §6, §7

In the next experiment the target is T4, PKA catalytic subunit (Bos taurus, UniProt P00517).
T4 construct: purchased UBI (Upstate Biotechnology) 14-114
Put plainly: PKA assay (counter screen). The protocol:
Each individual PKA assay consists of the following components: • 1) 10 μl 5×PKA assay buffer (200 mM Tris pH7.5, 100 mM MgCl2, 5 mM 2-mercaptoethanol, 0.5 mM EDTA) • 2) 10 μl of a 50 μM stock of Kemptide (Sigma) diluted into water • 3) 10 μl ^33P-ATP (prepared by diluting 1.0 μl ^33P-ATP [10 mCi/ml] into 200 μl of a 50 μM stock of unlabeled ATP) • 4) 10 μl appropriate solvent control dilution or inhibitor dilution • 5) 10 μl of a 70 nM stock of PKA catalytic subunit (UBI catalog #14-114) diluted in 0.5 mg/ml BSA
The final assay concentrations were 40 mM Tris pH 7.5, 20 mM MgCl2, 1 mM 2-mercaptoethanol, 0.1 mM EDTA, 10 μM Kemptide, 10 μM ^33P-ATP, 14 nM PKA and 0.1 mg/ml BSA.
Assays were assembled in 96 deep-well assay plates. Components #3 and #4 were premixed and in a separate tube, a mixture containing equal volumes of components #1, #2, and #5 was prepared. The assay reaction was initiated by adding 30 μl of the components #1, #2, and #5 mixture to wells containing ^33P-ATP and inhibitor. The liquid in the assay wells was mixed and the assay reactions incubated for 20 minutes at room temperature. […]
The enzyme reaction product (phosphorylated Kemptide) was quantitated using p81 phosphocellulose 96 well filter plates (Millipore). […] 30 μl scintillation fluid was added to each well and the filters counted on a TopCount (Packard).

The target of the next experiment is T5, delta PH-Akt1 (Homo sapiens, UniProt P31749).
T5 construct: PCR deletion mutagenesis was done using the full length Akt1 gene in the pS2neo vector as template; biotin tag (from pS2neo vector); made in house; host or cells: Drosophila S2 cells
T5 sequence (P31749 with tags, fused parts or gaps): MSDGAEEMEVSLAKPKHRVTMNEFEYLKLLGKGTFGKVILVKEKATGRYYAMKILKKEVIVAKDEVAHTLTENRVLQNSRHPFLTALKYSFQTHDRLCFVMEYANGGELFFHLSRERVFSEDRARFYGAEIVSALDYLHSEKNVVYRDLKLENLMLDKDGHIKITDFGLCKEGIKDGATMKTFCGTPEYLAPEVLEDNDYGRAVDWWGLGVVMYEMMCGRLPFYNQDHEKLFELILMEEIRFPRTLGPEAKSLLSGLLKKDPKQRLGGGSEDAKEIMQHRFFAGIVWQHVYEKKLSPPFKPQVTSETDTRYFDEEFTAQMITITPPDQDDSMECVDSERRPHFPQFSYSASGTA
As to the kind of experiment: Akt kinase assay, phosphorylation of GSK3-derived peptide. The protocol:
For the expression of a pleckstrin homology domain (PH) deleted (Δ aa 4-129, which includes deletion of a portion of the Akt1 hinge region) version of Akt1, PCR deletion mutagenesis was done using the full length Akt1 gene in the pS2neo vector as template. The PCR was carried out in 2 steps using overlapping internal primers (5′[…]Δ[…] 3′ (SEQ.ID.NO.: 6), and 5′[…]Δ[…] TATTC 3′ (SEQ.ID.NO.: 7)) which encompassed the deletion and 5′ and 3′ flanking primers which encompassed the KpnI site and middle T tag on the 5′ end. The final PCR product was digested with KpnI and SmaI and ligated into the pS2neo full length Akt1 KpnI/Sma I cut vector, effectively replacing the 5′ end of the clone with the deleted version.
This procedure describes a kinase assay which measures phosphorylation of a biotinylated GSK3-derived peptide by human recombinant active Akt/PBK isoforms or Akt/PBK mutants. The ^33P-labeled biotinylated product can be captured and detected using Streptavidin coated Flashplates (NEN LifeSciences) or Streptavidin Membrane Filter Plates (Promega). Alternatively, a GSK3-derived peptide with 2 added lysine residues was used as the substrate and subsequently captured using Phosphocellulose Membrane Filter Plates (Polyfiltronics). […]
as §6

Molecules are shown by their SMILES.

T2 sequence (P31749 whole entry): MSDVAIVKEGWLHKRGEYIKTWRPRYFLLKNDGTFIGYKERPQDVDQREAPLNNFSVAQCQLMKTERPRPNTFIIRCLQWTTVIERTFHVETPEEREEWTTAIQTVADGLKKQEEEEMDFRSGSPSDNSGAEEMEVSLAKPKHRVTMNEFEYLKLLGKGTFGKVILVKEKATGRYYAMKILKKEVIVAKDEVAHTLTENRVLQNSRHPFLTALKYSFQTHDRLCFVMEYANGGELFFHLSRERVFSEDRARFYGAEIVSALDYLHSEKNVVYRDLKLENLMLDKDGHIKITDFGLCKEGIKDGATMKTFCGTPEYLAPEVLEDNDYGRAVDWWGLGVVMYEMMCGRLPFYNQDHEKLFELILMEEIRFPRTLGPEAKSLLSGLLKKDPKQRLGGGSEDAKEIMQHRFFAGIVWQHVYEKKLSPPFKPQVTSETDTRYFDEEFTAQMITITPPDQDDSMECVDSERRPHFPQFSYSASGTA

`OCCOc1nn2c(-c3ccccc3)nnc2cc1-c1ccccc1` [Compound 1, 6-(2-Hydroxyethyl)oxy-3,7-diphenyl-[1,2,4]triazolo[4,3-b]pyridazine]: the IC50 (in general, the point on the concentration scale where inhibition reaches its midpoint) in the experiment on PKC (mix of isoforms) was greater than 40 µM.
With `OCCCCOc1nn2c(-c3ccccc3)nnc2cc1-c1ccccc1` [Compound 2], the IC50 in the experiment on PKC (mix of isoforms) was greater than 40 µM; on Akt2, greater than 50 µM; on active human Akt1 it was 4.65 µM; on Akt3 it was greater than 50 µM; against PKA catalytic subunit, greater than 40 µM; against delta PH-Akt1 it was greater than 50 µM.
